Source: PMC10788917 (Journal of Medicinal Chemistry, 2023)
Changes are numbered by the printed parent chain.

Assays:
Assay in all cases: HDAC8 mutant biochemical assay
[1] = molecular target: T1, HDAC8 Cys102Ser/Cys153Ser/Cys125Ser (Homo sapiens, UniProt Q9BY41, C102S/C125S/C153S); details: read-out: IC50 [μM] @ 100 nM HDAC8: C Cys102Ser/Cys153Ser/Cys125Ser, 1 h preincubation
T1 construct: made in house
T1 sequence (Q9BY41 1-377 C102S/C125S/C153S): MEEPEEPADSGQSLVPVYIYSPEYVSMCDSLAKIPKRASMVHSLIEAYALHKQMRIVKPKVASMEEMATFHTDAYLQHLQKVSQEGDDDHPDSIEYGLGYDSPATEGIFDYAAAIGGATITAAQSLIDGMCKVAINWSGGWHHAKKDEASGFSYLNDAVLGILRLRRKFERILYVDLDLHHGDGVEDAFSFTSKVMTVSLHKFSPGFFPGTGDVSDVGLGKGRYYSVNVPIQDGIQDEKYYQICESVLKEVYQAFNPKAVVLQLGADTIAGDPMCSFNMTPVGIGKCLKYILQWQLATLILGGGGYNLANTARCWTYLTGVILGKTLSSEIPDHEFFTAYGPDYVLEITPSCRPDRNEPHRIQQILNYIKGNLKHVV
Experimental: (§1) HDAC8 mutant variants were generated, produced, and further purified as described previously.[32] Cysteines 28 and 314 were exchanged with serine using the following primer pairs: HD8_C28S_for, […]; HD8_C28S_rev, […]; HD8_C314S_for, […]; HD8_C314S_rev, […].
(§2) The enzyme activity assay was performed in assay buffer [25 mM Tris-HCl (pH 8.0), 50 mM NaCl, and 0.001% (v/v) Pluronic F-68] in black half-area 96-well microplates (Greiner Bio-One). For the initial screening, 10 nM HDAC8 was preincubated with the indicated compounds at 250 μM for 2 h at 30 °C. […] The reaction was initiated by the addition of 20 μM Boc-Lys(TFA)-AMC (Bachem). After substrate conversion at 30 °C for 15 min for HDAC8 and 1 h for HDAC8 mutants and HDAC4, the reaction was stopped by adding 1.67 μM suberoylanilide trifluoromethylketone (SATFMK). The deacetylated substrate was cleaved with 0.42 mg/mL trypsin to release fluorescent 7-amino-4-methylcoumarin (AMC), which was detected with a microplate reader (PHERAstar FS […]) with fluorescence excitation at 360 nm and emission at 460 nm. IC50 values were calculated by generating dose–response curves in GraphPad Prism 6 and fitting those to a four-parameter logistic model.

[2] = molecular target: T2, HDAC8 Cys102Ser/Cys153Ser/Cys314Ser (Homo sapiens, UniProt Q9BY41, C102S/C153S/C314S); details: read-out: IC50 [μM] @ 100 nM HDAC8: H Cys102Ser/Cys153Ser/Cys314Ser, 1 h preincubation
T2 construct: made in house
T2 sequence (Q9BY41 1-377 C102S/C153S/C314S): T1 sequence (Q9BY41 1-377 C102S/C125S/C153S) with S125C, C314S
Experimental: as §1, §2

[3] = molecular target: T3, HDAC8 Cys102Ser/Cys153Ser/Cys28Ser (Homo sapiens, UniProt Q9BY41, C102S/C153S/C28S); details: read-out: IC50 [μM] @ 100 nM HDAC8: B Cys102Ser/Cys153Ser/Cys28Ser, 1 h preincubation
T3 construct: made in house
T3 sequence (Q9BY41 1-377 C28S/C102S/C153S): T1 sequence (Q9BY41 1-377 C102S/C125S/C153S) with C28S, S125C
Experimental: as §1, §2

[4] = molecular target: T4, HDAC8 Cys102Ser/Cys153Ser/Cys352Ser (Homo sapiens, UniProt Q9BY41, C102S/C153S/C352S); details: read-out: IC50 [μM] @ 100 nM HDAC8: I Cys102Ser/Cys153Ser/Cys352Ser, 1 h preincubation
T4 construct: made in house
T4 sequence (Q9BY41 1-377 C102S/C153S/C352S): T1 sequence (Q9BY41 1-377 C102S/C125S/C153S) with S125C, C352S
Experimental: as §1, §2

Structure (SMILES) | IC50 [1] [µM] | IC50 [2] [µM] | IC50 [3] [µM] | IC50 [4] [µM]
C[n+]1cncc(Br)c1 [F2+] | 56 ± 5 | 74 ± 11 | > 130 | 15 ± 1
C#Cc1c[n+](C)ccn1 [G6+] | 126 ± 17 | > 130 | 106 ± 10 | 59 ± 3
C[n+]1cncc(I)c1 [F3+] | – | 19 ± 2 | > 130 | 29 ± 6
C[n+]1ccc(I)cc1 [C3+] | 81 ± 4 | 14 | > 130 | 29 ± 2
C[n+]1cccnc1Cl [D1+] | 82 ± 4 | > 130 | > 130 | 41 ± 7

Now from value to compound:

IC50 [1] [µM] | IC50 [2] [µM] | IC50 [3] [µM] | IC50 [4] [µM] | Structure (SMILES)
65 ± 6 | 92 ± 10 | > 130 | 36 ± 2 | C[n+]1ccccc1I [A3+]
14 ± 1 | 20 ± 1 | 62 ± 3 | 11 ± 1 | C[n+]1cccnc1I [D3+]
15 ± 1 | 100 ± 14 | 67 ± 6 | 9 ± 1 | C#Cc1cc[n+](C)cc1 [C6+]
52 ± 7 | > 130 | > 130 | 15 ± 2 | C[n+]1cccnc1Br [D2+]
> 130 | – | > 130 | 118 ± 13 | C#Cc1nccc[n+]1C [D6+]
